Target: B-Raf (V600E)-kinase (Homo sapiens (Human), UniProt P15056, V600E)
Assay: Kinase test B-Raf (V600E)
Format: biochemical
Conditions: 250 μM ATP, biotinylated MEK1 substrate
Procedure: In a dilution series 10 μL of test substance solution are placed in a multiwell plate. The dilution series is selected so that generally a range of concentrations of 2 μM to 0.128 nM or 0.017 nM is covered. If necessary the initial concentration of 2 μM is changed to 50 μM, 10 μM or 0.4 μM or 0.2857 μM and further dilution is carried out accordingly. The final concentration of DMSO is 5%. 10 μL of the B-Raf (V600E)-kinase solution are pipetted in (containing 0.5 ng B-Raf (V600E)-kinase in 20 mM Tris-HCl pH 7.5, 0.1 mM EDTA, 0.1 mM EGTA, 0.286 mM sodium orthovanadate, 10% glycerol, 1 mg/mL bovine serum albumin, 1 mM dithiothreitol) and the mixture is incubated for 1 h at RT under with shaking. The kinase reaction is started by the addition of 20 μL ATP solution [final concentration: 250 μM ATP, 30 mM Tris-HCl pH 7.5, 0.02% Brij, 0.2 mM sodium orthovanadate, 10 mM magnesium acetate, phosphatase cocktail (Sigma, #P2850, dilution recommended by the manufacturer), 0.1 mM EGTA] and 10 μL MEK1 solution [containing 50 ng biotinylated MEK1 (prepared from purified MEK1 according to standard procedure, e.g. with EZ-Link Sulpho-NHS-LC-Biotin reagent, Pierce, #21335) in 50 mM Hepes pH 7.5, 150 mM NaCl, 10% glycerol, 0.02% Brij-35, 0.2 mM PMSF, 0.2 mM benzamidine] and carried out for 60 min at RT with constant shaking. The reaction is stopped by the addition of 12 μL of a 100 mM EDTA solution and incubation is continued for a further 5 min. 55 μL of the reaction solution are transferred into a streptavidin-coated plate (e.g. Streptawell HighBond, Roche, #11989685001) and shaken gently for 1 h at RT, in order to bind biotinylated MEK1 to the plate. After elimination of the liquid the plate is washed five times with 200 μL of 1×PBS and 100 μL solution of primary antibody plus europium-labelled secondary antibody [Anti Phospho-MEK (Ser217/221), Cell Signaling, #9121 and Eu-N1 labeled goat-anti-rabbit antibody, Perkin Elmer, #AD0105], the primary antibody is diluted 1:2000 and the secondary antibody is diluted to 0.4-0.5 μg/mL in Delfia Assay Buffer (Perkin Elmer, #1244-111). After 1 h shaking at RT the solution is poured away and washed five times with 200 μL Delfia Wash Buffer (Perkin Elmer, #4010-0010/#1244-114). After the addition of 200 μL Enhancement Solution (Perkin Elmer, #4001-0010/#1244-105) the mixture is shaken for 10 min at RT and then measured in a Wallac Victor using the program “Delfia Time Resolved Fluorescence (Europium)”. IC50 values are obtained from these dosage-activity curves using a software program (GraphPadPrizm).

Sequence of B-Raf (V600E)-kinase (P15056 whole entry V600E): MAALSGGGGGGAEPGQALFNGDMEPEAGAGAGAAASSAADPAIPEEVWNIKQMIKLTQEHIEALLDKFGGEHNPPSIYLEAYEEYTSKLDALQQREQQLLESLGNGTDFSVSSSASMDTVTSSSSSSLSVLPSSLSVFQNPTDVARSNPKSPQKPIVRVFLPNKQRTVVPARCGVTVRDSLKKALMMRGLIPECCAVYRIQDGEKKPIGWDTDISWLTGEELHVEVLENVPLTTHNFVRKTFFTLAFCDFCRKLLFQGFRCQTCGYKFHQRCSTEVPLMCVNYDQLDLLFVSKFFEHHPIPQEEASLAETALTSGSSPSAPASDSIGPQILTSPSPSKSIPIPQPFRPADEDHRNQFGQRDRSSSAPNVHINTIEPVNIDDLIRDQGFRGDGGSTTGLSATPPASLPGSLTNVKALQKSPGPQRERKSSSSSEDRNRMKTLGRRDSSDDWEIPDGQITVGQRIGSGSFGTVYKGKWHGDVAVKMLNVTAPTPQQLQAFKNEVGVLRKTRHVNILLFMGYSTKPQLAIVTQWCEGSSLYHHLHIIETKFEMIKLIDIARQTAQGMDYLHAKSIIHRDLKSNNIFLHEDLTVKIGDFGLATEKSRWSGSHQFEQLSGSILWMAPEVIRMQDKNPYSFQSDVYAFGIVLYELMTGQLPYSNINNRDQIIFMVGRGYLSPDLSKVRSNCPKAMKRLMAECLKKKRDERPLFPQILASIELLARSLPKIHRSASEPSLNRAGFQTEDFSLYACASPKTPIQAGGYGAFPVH

`COc1c(NC(=O)c2ccc(C)c(Nc3ncnc4ccc(C5CCNC5)nc34)c2)cc(C(C)(C)C)cc1NS(C)(=O)=O` (centres unmarked) [III-39] was tested, and the IC50 was 151 nM.

For `COCCN1CCN(c2ccc3ncnc(Nc4cc(C(=O)Nc5cc(C(C)(C)C)on5)ccc4C)c3n2)CC1` [III-11], the IC50 was 35 nM.

In the case of `COCCN1CCN(c2ccc3ncnc(Sc4cc(C(=O)Nc5cc(C(C)(C)C)cc(NS(C)(=O)=O)c5OC)ccc4C)c3n2)CC1` [III-55], the IC50 is reported as 1620 nM.

Molecule `COc1c(NC(=O)c2ccc(C)c(Nc3ncnc4ccc(N5CCN(CCN6CCOCC6)CC5)nc34)c2)cc(C(C)(C)C)cc1NS(C)(=O)=O` [III-25] has an IC50 of 638 nM.

With `COc1c(NC(=O)c2ccc(C)c(Nc3ncnc4ccc(C5CCNCC5)nc34)c2)cc(C(C)(C)C)cc1NS(C)(=O)=O` [III-31] the IC50 was 70 nM.

`COCCN1CCN(c2ccc3ncnc(Nc4cc(NC(=O)c5cccc(C(C)(C)C#N)c5)ccc4C)c3n2)CC1` [IV-3] showed an IC50 of 18 nM.

`Cc1ccc(NC(=O)c2cccc(C(C)(C)C#N)c2)cc1Nc1ncnc2ccc(N[C@H]3CCOC3)nc12` [IV-5] was tested, and the IC50 was 5 nM.

`COc1c(NC(=O)c2ccc(C)c(Nc3ncnc4ccc(C)nc34)c2)cc(C(C)(C)C)cc1NS(C)(=O)=O` [III-28] showed an IC50 of 431 nM.

With `COCCN1CCN(c2ccc3ncnc(Nc4cc(C(=O)Nc5cc(C(C)(C)C)cc(NS(C)(=O)=O)c5OC)ccc4C)c3n2)CC1` [III-19] the IC50 was 476 nM.

`COc1c(NC(=O)c2ccc(C)c(Nc3ncnc4ccc(N5CC[C@@H](F)C5)nc34)c2)cc(C(C)(C)C)cc1NS(C)(=O)=O` [III-22] showed an IC50 of 25 nM.

For `COc1c(NC(=O)c2ccc(C)c(Nc3ncnc4ccc(C5=CCNCC5)nc34)c2)cc(C(C)(C)C)cc1NS(C)(=O)=O` [III-27], the IC50 was 101 nM.

With `COc1c(NC(=O)c2ccc(C)c(Nc3ncnc4ccc(C5CCN(C)C5)nc34)c2)cc(C(C)(C)C)cc1NS(C)(=O)=O` (centres unmarked) [III-40] the IC50 was 286 nM.

`Cc1ccc(C(=O)Nc2cc(C(C)(C)C)on2)cc1Nc1ncnc2ccc(C3=CCNCC3)nc12` [III-51] gave an IC50 of 23 nM.

`Cc1ccc(C(=O)Nc2cccc(C(C)(C)C#N)c2)cc1Nc1ncnc2ccc(N3CCOCC3)nc12` [III-3] was tested, and the IC50 was 7 nM.

— patent US8569316B2, “Pyrimido [5,4-D] pyrimidine derivatives for the inhibition of tyrosine kinases” (Boehringer Ingelheim International GmbH, priority 2009, dated 2013)
